In patent US6913748B2, “Cross-linkers with high reactivity and solubility and their use in the preparation of conjugates for targeted delivery of small molecule drugs” (Immunogen, Inc., priority 2002, dated 2005):

What was measured:
[1] = Unconjugated (free) drug by reverse phase HPLC analysis of the conjugate sample; conditions: N901-DM1 conjugate, 1.7-fold DM1
Procedure: (§1) The increased efficiency of conjugation using the SSNPP linker is accomplished without compromise in the monomeric character of the conjugate and in the amount of unconjugated (free) drug associated with the antibody conjugate. SEC analysis is used to determine the amount of monomer, dimer, trimer, or higher molecular weight aggregates. The level of unconjugated drug was measured by reverse phase HPLC analysis of the conjugate sample. The percent free drug for either reaction was less than 2%. In addition, shorter conjugation reaction times are possible with SSNPP compared with SPP (5), which may decrease loss of some antibodies that are sensitive to prolonged exposure to organic solvent required in the conjugation reaction. Shorter reaction times should also decrease drug loss due to DM1 dimerization, which is a competing side reaction during conjugation. The resulting increases in yield and reduced side reactions should further contribute to reduced DM1 requirements.

[2] = SEC analysis of conjugate (monomer, dimer, trimer, higher molecular weight aggregates); assay type: physicochemical; conditions: N901-DM1 conjugate; conjugation at pH 7.4, 2 hours, 1.7-fold DM1
Procedure: as §1

[3] = system: N901 antibody with DM1; assay: Conjugation (disulfide exchange) of linker-modified N901 antibody with DM1; parameters: species or system murine; conditions: pH 7.4; 1.1-fold molar excess of DM1 per linker; compared with SPP-modified antibody
Procedure: SPP or SSNPP linker was dissolved in ethanol at a concentration of approximately 10 mM. Antibody was dialyzed into buffer A (50 mM KPi, 50 mM NaCl, 2 mM EDTA, pH 6.5). For the linker reaction, the antibody was at 8 mg/ml, and 7 equivalents of linker were added while stirring in the presence of 5% (v/v) ethanol. The reaction was allowed to proceed at ambient temperature for 90 minutes. Unreacted linker was removed from the antibody by Sephadex G25 gel filtration using a Sephadex G25 column equilibrated with Buffer A at pH 6.5 or 150 mM potassium phosphate buffer containing 100 mM NaCl, pH 7.4 as indicated. For the SPP linker, the extent of modification was assessed by release of pyridine-2-thione using 50 mM DTT and measuring the absorbance at 343 nm as described below (ε343=8080 M^−1 cm^−1 for free pyridine-2-thione). For SSNPP, modification was assessed directly by measuring the absorbance at 325 nm (ε325=10,964 M^−1 cm^−1 for the 4-nitropyridyl-2-dithio group linked to antibody). […] For DML, the extent of drug conjugation to antibody was assessed by measuring A252 and A280 of the conjugate as described below. […]
Calculating Ab and DM1 component concentrations of Ab-DM1. […] The components are quantified using the following algebraic expressions which account for the contribution of each component at each wavelength (CAb is the molar concentration of Ab and CD is the molar concentration of DM1): […]

[4] = Solubility of cross-linkers in water / aqueous solutions; assay type: physicochemical

% free drug ([1]; conjugation at pH 6.5, 2 hours) [%]	% free drug ([1]; conjugation at pH 7.4, 2 hours) [%]	SEC Analysis Dimer [2] [%]	SEC Analysis HMW [2] [%]	SEC Analysis Monomer [2] [%]	SEC Analysis Trimer [2] [%]	solubility in water / aqueous solutions [4]	Structure (SMILES)	time course of the reaction of DM1 with modified antibody (FIG. 8) [3]
1.9	1.8	4.9	0.2	93.6	0.4		CC(CCC(=O)ON1C(=O)CCC1=O)SSc1ccccn1 (centres unmarked) [SPP, reference compound]	
0.9	0.8	6.3	0.1	91.9	0.6	highly water-soluble	CC(CCC(=O)ON1C(=O)CC(S(=O)(=O)O)C1=O)SSc1ccc([N+](=O)[O-])cn1 (centres unmarked) [SSNPP, N-Sulfosuccinimidyl 4-(5-nitro-2-pyridyldithio)-pentanoate]	considerably faster
